Experimental data as given in patent US7932290B2, “Method for the treatment of metabolic disorders” (Wellstat Biologics Corporation, priority 2003, dated 2011).

Tests used:
[1] = target: T1, Mouse PPARα LBD fusion protein (Mus musculus, UniProt P23204); assay: Transcription activation potential, GAL4 luciferase reporter in C3A cells; assay type: cell-based
T1 sequence (P23204 239-466): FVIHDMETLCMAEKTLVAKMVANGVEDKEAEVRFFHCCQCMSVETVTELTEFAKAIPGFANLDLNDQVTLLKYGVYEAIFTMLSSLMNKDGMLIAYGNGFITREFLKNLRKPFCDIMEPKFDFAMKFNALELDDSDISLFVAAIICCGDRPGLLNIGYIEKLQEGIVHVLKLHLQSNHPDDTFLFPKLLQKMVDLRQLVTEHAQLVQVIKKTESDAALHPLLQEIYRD
Method: (§1) Cells were seeded in 24 well plates the day prior to transfection at 5×10^4−2×10^5 cells/well, depending upon cell type. Cells were transfected using Lipofectamine 2000 reagent from Invitrogen. A total of 0.8 μg DNA/well was added to 50 μL of Optimem Reduced Serum media (serum free; Gibco). Lipofectamine 2000 was added (2.5 μL/well) to another tube containing 50 μL of Optimem media. Plasmid DNA was added at a ratio of 4:3 (reporter:activator); where appropriate, salmon sperm DNA was substituted for activator expressing plasmid. The reporter plasmid used was pFR-Luc, which has the firefly luciferase gene under the control of a GAL4 UAS ([…]) containing promoter. The activator expressing plasmids contain yeast GAL4 DNA binding domain (dbd) fusion of either human PPARα ligand binding domain (LBD; a.a. 167-468) or human PPARγ LBD (a.a. 176-479). DNA constructs containing the mouse PPARα or PPARγ LBD fused to the GAL4 DNA binding domain were also used. The two solutions were incubated at room temperature for 5 min, and then combined. The combined solution was incubated at room temperature for approximately 30 min. Cells were washed once with PBS, and 100 μL of transfection mix added to each well. Plates were incubated at 37° C. in a 5% CO2 incubator for 4.5 hr, followed by aspiration of the transfection mix, with plates refed using EMEM complete media (supplemented with 10% FBS, 1× Glutamine). 24 hr post-transfection, plates were treated with the appropriate compounds in EMEM complete media, followed by washing once with PBS and addition of 100 μL 1× reporter lysis buffer/well (Promega) 24 hr after treatment. Plates went through one freeze/thaw cycle prior to analysis. Approximately 10 μL of lysate was added to 100 μL of firefly luciferase substrate, mixed by pipetting, and analyzed on a luminometer for 10 s using the integration function (relative luciferase units/RLU) or on a Microbeta Trilux (luciferase counts per second/LCPS). Each treatment was performed in triplicate, and in multiple, separate experiments.

[2] = system: Human PPARγ LBD fusion protein; assay: as above; assay type: cell-based
Method: Cells were seeded in 24 well plates the day prior to transfection at 5×10^4−2×10^5 cells/well, depending upon cell type. Cells were transfected using Lipofectamine 2000 reagent from Invitrogen. A total of 0.8 μg DNA/well was added to 50 μL of Optimem Reduced Serum media (serum free; Gibco). Lipofectamine 2000 was added (2.5 μL/well) to another tube containing 50 μL of Optimem media. Plasmid DNA was added at a ratio of 4:3 (reporter:activator); where appropriate, salmon sperm DNA was substituted for activator expressing plasmid. […] DNA constructs containing the mouse PPARα or PPARγ LBD fused to the GAL4 DNA binding domain were also used. The two solutions were incubated at room temperature for 5 min, and then combined. The combined solution was incubated at room temperature for approximately 30 min. Cells were washed once with PBS, and 100 μL of transfection mix added to each well. Plates were incubated at 37° C. in a 5% CO2 incubator for 4.5 hr, followed by aspiration of the transfection mix, with plates refed using EMEM complete media (supplemented with 10% FBS, 1× Glutamine). 24 hr post-transfection, plates were treated with the appropriate compounds in EMEM complete media, followed by washing once with PBS and addition of 100 μL 1× reporter lysis buffer/well (Promega) 24 hr after treatment. Plates went through one freeze/thaw cycle prior to analysis. Approximately 10 μL of lysate was added to 100 μL of firefly luciferase substrate, mixed by pipetting, and analyzed on a luminometer for 10 s using the integration function (relative luciferase units/RLU) or on a Microbeta Trilux (luciferase counts per second/LCPS). Each treatment was performed in triplicate, and in multiple, separate experiments.

[3] = system: db/db mice; assay: Antidiabetic effects in db/db mice, Example B (2 weeks daily oral dosing); assay type: in vivo, mouse; details: for Glucose (% of Control) / Glucose: 2 weeks; for Glucose: nonfasting; for Free Fatty Acids ± SEM / Triglycerides ± SEM: serum, 2 weeks daily oral, dose not given in Table 17 (see Table 16)
Description: db/db mice have a defect in leptin signaling, leading to hyperphagia, obesity and diabetes. Moreover, unlike ob/ob mice on a C57BL/6J background, db/db mice on a C57BL/KS background undergo failure of their insulin-producing pancreatic islet cells, resulting in progression from hyperinsulinemia (associated with peripheral insulin resistance) to hypoinsulinemic diabetes.
Male obese (db/db homozygote) C57BL/Ksola mice approximately 8 weeks of age, were obtained from Jackson Labs (Bar Harbor, Me.) and randomly assigned into groups of 5-7 animals such that the body weights (50-55 g) and serum glucose levels (≧300 mg/dl in fed state) were similar between groups; male lean (db/+heterozygote) mice served as cohort controls. A minimum of 7 days was allowed for adaptation after arrival. All animals were maintained under controlled temperature (23° C.), relative humidity (50±5%) and light (7:00-19:00), and allowed free access to standard chow (Formulab Diet 5008, Quality Lab Products, Elkridge, Md.) and water.
Treatment cohorts were given daily oral doses of Vehicle (1% hydroxypropylmethylcellulose), Compounds BI, CE, BT, BV, […] or Fenofibrate for 2 weeks. At the end of the treatment period 100 μl of venous blood was withdrawn in a heparinized capillary tube from the retro-orbital sinus of db/db mice for serum chemistry analysis.

[4] = system: male ob/ob mouse model of Type II diabetes; assay: Antidiabetic effects in ob/ob mice (serum chemistry after 2 weeks daily oral dosing); assay type: in vivo; design: key to Glucose ± SEM: serum glucose in mg/dl; Triglycerides ± SEM / Free Fatty Acids ± SEM: unit not given here; details: for Free Fatty Acids ± SEM / Triglycerides ± SEM / Glucose ± SEM: 60 mg/kg; for Glucose / Glucose (% of Control): 60 mg/kg daily oral, 2 weeks; for Glucose ± SEM: Table 15
Method: Obese (ob/ob) mice have a defect in the protein leptin, a regulator of appetite and fuel metabolism, leading to hyperphagia, obesity and diabetes.
Male obese (ob/ob homozygote) C57BL/6J mice, approximately 8 weeks of age, were obtained from Jackson Labs (Bar Harbor, Me.) and randomly assigned into groups of 5 animals each such that the body weights (45-50 g) and serum glucose levels (≧300 mg/dl in fed state) were similar between groups. A minimum of 7 days was allowed for adaptation after arrival. All animals were maintained under controlled temperature (23° C.), relative humidity (50±5%) and light (7:00-19:00), and allowed free access to standard chow (Formulab Diet 5020 Quality Lab Products, Elkridge, Md.) and water.
Treatment cohorts were given daily oral doses of vehicle (1% hydroxypropyl-methylcellulose), Compounds BI, CF, CA, CB, CC, or CD for 2 weeks. At the end of the treatment period 100 μl of venous blood was withdrawn in a heparinized capillary tube from the retro-orbital sinus of ob/ob mice for serum chemistry analysis.

[5] = target: T2, Human PPARα LBD fusion protein (Homo sapiens, UniProt Q07869); assay: Transcription activation potential, GAL4 luciferase reporter in C3A cells; assay type: cell-based
T2 construct: a.a; 167-468)
T2 sequence (Q07869 167-468): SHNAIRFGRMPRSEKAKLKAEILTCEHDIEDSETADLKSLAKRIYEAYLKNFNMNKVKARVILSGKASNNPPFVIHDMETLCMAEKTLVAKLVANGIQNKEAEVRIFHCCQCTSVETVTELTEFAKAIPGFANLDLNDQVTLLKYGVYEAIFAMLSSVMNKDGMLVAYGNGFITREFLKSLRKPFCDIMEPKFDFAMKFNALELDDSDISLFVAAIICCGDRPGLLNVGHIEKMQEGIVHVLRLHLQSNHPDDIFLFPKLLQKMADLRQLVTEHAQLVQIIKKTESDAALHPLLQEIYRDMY
Method: as §1

SMILES: CC(C(=O)O)c1cccc(Oc2ccccc2)c1 (stereo not drawn) [fenoprofen, reference compound]
- transcription activation potential (luciferase) ± standard deviation ([1]; 100 μM, Table 21a): 4440 ± 213 RLU

SMILES: CN(CCOc1ccc(CC2SC(=O)NC2=O)cc1)c1ccccn1 (stereo not drawn) [Rosiglitazone, rosiglitazone, reference compound]
- transcription activation potential (luciferase) ± standard deviation ([2]; Table 22b line 1 μM, rosiglitazone at one-fifth the listed concentration (0.2 μM)): 124 ± 33.8 LCPS
- transcription activation potential (luciferase) ± standard deviation ([2]; Table 22b line 3 μM, rosiglitazone at one-fifth the listed concentration): 134.8 ± 47.8 LCPS
- transcription activation potential (luciferase) ± standard deviation ([2]; Table 22b line 10 μM, rosiglitazone at one-fifth the listed concentration): 626.6 ± 227 LCPS
- transcription activation potential (luciferase) ± standard deviation ([2]; Table 22b line 30 μM, rosiglitazone at one-fifth the listed concentration): 887.2 ± 338.2 LCPS
- transcription activation potential (luciferase) ± standard deviation ([2]; Table 22b line 100 μM, rosiglitazone at one-fifth the listed concentration): 1034.1 ± 400.5 LCPS

SMILES: COc1cc(C(=O)CCC(=O)O)ccc1OCc1c(C)cccc1C [BT, 4-[[4-(2,6-Dimethylbenzyloxy)-3-methoxy]phenyl]-4-oxobutyric acid]
- Glucose (% of Control) ([3]; 107 mg/kg daily oral): 99 ± 9 % of Control
- Glucose ([3]; 107 mg/kg daily oral): 684.3 ± 63.6 mg/dL
- Free Fatty Acids ± SEM [3]: 3897.7 ± 291.3 µM
- Triglycerides ± SEM [3]: 211.5 ± 21.5 mg/dL

SMILES: COC(=O)CC(=O)c1cccc(OCc2c(C)cccc2C)c1 [CB, Methyl 3-(3-(2,6-Dimethylbenzyloxy)phenyl)-3-oxopropionate]
- Free Fatty Acids ± SEM [4]: 2076.2 ± 169.0
- Triglycerides ± SEM [4]: 118.8 ± 18.0
- Glucose [4]: 494.4 ± 72.3 mg/dL
- Glucose (% of Control) [4]: 117.0 ± 17.0 % of Control
- Glucose ± SEM [4]: 494.4 ± 72.3

SMILES: Cc1cccc(C)c1COc1cccc(C(=O)CCCC(=O)O)c1 [CD, 5-(3-(2,6-Dimethylbenzyloxy)phenyl)-5-oxopentanoic acid]
- Free Fatty Acids ± SEM [4]: 1961.8 ± 194.2
- Triglycerides ± SEM [4]: 119.0 ± 14.2
- Glucose [4]: 505.6 ± 63.5 mg/dL
- Glucose (% of Control) [4]: 119.0 ± 15.0 % of Control
- Glucose ± SEM [4]: 505.6 ± 63.5

SMILES: Cc1cccc(Nc2cc(Cl)nc(SCC(=O)O)n2)c1C [Wy, reference compound]
- transcription activation potential (luciferase) ± standard deviation ([1]; 1 μM, Table 20a): 406.73 ± 80.11 LCPS
- transcription activation potential (luciferase) ± standard deviation ([1]; 3 μM, Table 20a): 295.8 ± 40.31 LCPS
- transcription activation potential (luciferase) ± standard deviation ([1]; 10 μM, Table 20a): 324.37 ± 11.06 LCPS
- transcription activation potential (luciferase) ± standard deviation ([1]; 30 μM, Table 20a): 414 ± 122.52 LCPS
- transcription activation potential (luciferase) ± standard deviation ([1]; 100 μM, Table 20a): 325.3 ± 91.83 LCPS
- transcription activation potential (luciferase) ± standard deviation ([1]; 100 μM, Table 21a): 55972 ± 5162 RLU
- transcription activation potential (luciferase) ± standard deviation ([1]; 200 μM, Table 20a): 115.2 ± 21.52 LCPS
- transcription activation potential (luciferase) ± standard deviation ([5]; 1 μM): 181.8 ± 47.6 LCPS
- transcription activation potential (luciferase) ± standard deviation ([5]; 3 μM): 153.1 ± 2.8 LCPS
- transcription activation potential (luciferase) ± standard deviation ([5]; 10 μM): 315.4 ± 36.5 LCPS
- transcription activation potential (luciferase) ± standard deviation ([5]; 30 μM): 648.6 ± 47.5 LCPS
- transcription activation potential (luciferase) ± standard deviation ([5]; 100 μM): 412.23 ± 114 LCPS

SMILES: Cc1cccc(C)c1COc1cccc(C(C=O)CC(N)=O)c1 (stereo not drawn) [CC, 3-(3-(2,6,-Dimethylbenzyloxy)phenyl)-4-oxobutyramide]
- Triglycerides ± SEM [4]: 91.6 ± 13.4
- Glucose [4]: 444.4 ± 89.5 mg/dL
- Glucose (% of Control) [4]: 105.0 ± 21.0 % of Control
- Glucose ± SEM [4]: 444.4 ± 89.5

SMILES: Cc1cccc(C)c1COc1ccccc1 [CA, (2,6-Dimethylbenzyloxy)benzene]
- Free Fatty Acids ± SEM [4]: 1572.2 ± 118.0
- Triglycerides ± SEM [4]: 92.6 ± 13.7
- Glucose [4]: 402.6 ± 61.0 mg/dL
- Glucose (% of Control) [4]: 95 ± 14.0 % of Control
- Glucose ± SEM [4]: 402.6 ± 61.0

SMILES: CC(C)OC(=O)C(C)(C)Oc1ccc(C(=O)c2ccc(Cl)cc2)cc1 [Fenofibrate, reference compound]
- Glucose (% of Control) ([3]; 113 mg/kg daily oral): 81 ± 7 % of Control
- Glucose ([3]; 113 mg/kg daily oral): 563.2 ± 49.0 mg/dL
- Free Fatty Acids ± SEM [3]: 3318.5 ± 208.7 µM
- Triglycerides ± SEM [3]: 109.3 ± 9.1 mg/dL
